The supplement of paper PMC4862054

Legend:
Assay in all cases: normalised viability (% of control), CellTiter-Blue; higher = more viable cells (about 100 = DMSO control)
Conditions in all cases: incubation time: 72 h
HCC1599 [1] = system: HCC1599
Summary of the method: (§1)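 Compound dissolved in 5 µl medium was pre-loaded into 384-well plates, and breast cancer cell lines in 20 µl suspension were seeded on top and incubated 72 h. After adding 2.5 µl CellTiter-Blue reagent for 2 h at 37 °C, fluorescence was read at 560/590 nm. Plates were normalised to vehicle (100) and a positive kill control (0), with Z'-factor quality control. Each value is normalised viability at a single listed concentration from the series.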

CAL-120 [2] = system: CAL-120
Summary of the method: as §1

CAL-148 [3] = system: CAL-148
Description: (§2)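 DSRT, CellTiter-Blue viability, 72 h incubation. Signal is normalised to DMSO and benzethonium chloride controls. Value is the normalised response at dose 7.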

DU-4475 [4] = system: DU-4475
Description: as §2

MDA-MB-453 [5] = system: MDA-MB-453
Description: as §2

CAL-85-1 [6] = system: CAL-85-1
Description: as §2

HDQ-P1 [7] = system: HDQ-P1
Description: as §2

CAL-51 [8] = system: CAL-51
Description: as §2

CAL-148 [9] = system: CAL-148; remark: listed apart in the source
Description: (§3)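 DSRT, CellTiter-Blue viability, 72 h incubation. Signal is normalised to DMSO and benzethonium chloride controls. Value is the normalised response at dose 3.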

MFM-223 = system: MFM-223
Description: as §3

DU-4475 [10] = system: DU-4475; remark: listed apart in the source
Description: as §3

HCC1143 = system: HCC1143
Description: as §3

BT-549 = system: BT-549
Description: as §3

MDA-MB-468 = system: MDA-MB-468
Description: as §3

MDA-MB-453 [11] = system: MDA-MB-453; remark: listed apart in the source
Description: as §3

CAL-85-1 [12] = system: CAL-85-1; remark: listed apart in the source
Description: as §3

HDQ-P1 [13] = system: HDQ-P1; remark: listed apart in the source
Description: as §3

SK-BR-3 = system: SK-BR-3
Description: as §3

HCC1599 [14] = system: HCC1599; remark: listed apart in the source
Description: as §3

MDA-MB-436 = system: MDA-MB-436
Description: as §3

Hs578T = system: Hs578T
Description: as §3

MDA-MB-231 = system: MDA-MB-231
Description: as §3

BT-474 = system: BT-474
Description: as §3

CAL-51 [15] = system: CAL-51; remark: listed apart in the source
Description: as §3

CAL-120 [16] = system: CAL-120; remark: listed apart in the source
Description: as §3

HCC1937 = system: HCC1937
Description: as §3

CAL-148 [17] = system: CAL-148; remark: listed apart in the source
Description: (§4)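 DSRT, CellTiter-Blue viability, 72 h incubation. Signal is normalised to DMSO and benzethonium chloride controls. Value is the normalised response at dose 8.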

DU-4475 [18] = system: DU-4475; remark: listed apart in the source
Description: as §4

MDA-MB-453 [19] = system: MDA-MB-453; remark: listed apart in the source
Description: as §4

CAL-85-1 [20] = system: CAL-85-1; remark: listed apart in the source
Description: as §4

HDQ-P1 [21] = system: HDQ-P1; remark: listed apart in the source
Description: as §4

CAL-51 [22] = system: CAL-51; remark: listed apart in the source
Description: as §4

With `COc1cc2c(Oc3ccc4[nH]c(C)cc4c3F)ncnc2cc1OCCCN1CCCC1` [Cediranib] the normalised viability (HCC1599 [1]; 1 nM) was 101%, the normalised viability (HCC1599 [1]; 100 nM) was 114% and the normalised viability (HCC1599 [1]; 1000 nM) was 76.7%. For the same compound, the normalised viability (CAL-120 [2]; 1 nM) was 117%, the normalised viability (CAL-120 [2]; 100 nM) was 110% and the normalised viability (CAL-120 [2]; 1000 nM) was 81.4%. It also gave a normalised viability (CAL-148 [3]; 100 nM) of 108%, a normalised viability (DU-4475 [4]; 100 nM) of 81.3% and a normalised viability (MDA-MB-453 [5]; 100 nM) of 92%. It also gave a normalised viability (CAL-85-1 [6]; 100 nM) of 95.6%, a normalised viability (HDQ-P1 [7]; 100 nM) of 95.9% and a normalised viability (CAL-51 [8]; 100 nM) of 81.6%. For the same compound, the normalised viability (CAL-148 [9]; 1 nM) was 97.3%, the normalised viability (MFM-223; 10 nM) was 78.9% and the normalised viability (DU-4475 [10]; 1 nM) was 97.6%. For the same compound, the normalised viability (HCC1143; 10 nM) was 125%, the normalised viability (BT-549; 10 nM) was 78.1% and the normalised viability (MDA-MB-468; 10 nM) was 103%. The normalised viability (MDA-MB-453 [11]; 1 nM) was 78.9%, the normalised viability (CAL-85-1 [12]; 1 nM) was 105% and the normalised viability (HDQ-P1 [13]; 1 nM) was 92.7%. The normalised viability (SK-BR-3; 10 nM) was 65.8%, the normalised viability (HCC1599 [14]; 10 nM) was 95.1% and the normalised viability (MDA-MB-436; 10 nM) was 92.9%. For the same compound, the normalised viability (Hs578T; 10 nM) was 78.1%, the normalised viability (MDA-MB-231; 10 nM) was 82.1% and the normalised viability (BT-474; 10 nM) was 98.4%. It also gave a normalised viability (CAL-51 [15]; 1 nM) of 87.2%, a normalised viability (CAL-120 [16]; 10 nM) of 112% and a normalised viability (HCC1937; 10 nM) of 96.6%. For the same compound, the normalised viability (CAL-148 [17]; 300 nM) was 101%, the normalised viability (DU-4475 [18]; 300 nM) was 98.8% and the normalised viability (MDA-MB-453 [19]; 300 nM) was 86.2%. The normalised viability (CAL-85-1 [20]; 300 nM) was 103%, the normalised viability (HDQ-P1 [21]; 300 nM) was 88.3% and the normalised viability (CAL-51 [22]; 300 nM) was 90.7%.
Work on `Cc1ccc(-c2cc(C(F)(F)F)nn2-c2ccc(S(N)(=O)=O)cc2)cc1` [Celecoxib] yielded a normalised viability (HCC1599 [1]; 10 nM) of 99%, a normalised viability (HCC1599 [1]; 1000 nM) of 95.7% and a normalised viability (HCC1599 [1]; 10000 nM) of 65.6%. The normalised viability (CAL-120 [2]; 10 nM) was 94.5%, the normalised viability (CAL-120 [2]; 1000 nM) was 79.7% and the normalised viability (CAL-120 [2]; 10000 nM) was 81.9%. It also gave a normalised viability (CAL-148 [3]; 1000 nM) of 75.5%, a normalised viability (DU-4475 [4]; 1000 nM) of 110% and a normalised viability (MDA-MB-453 [5]; 1000 nM) of 103%. It also gave a normalised viability (CAL-85-1 [6]; 1000 nM) of 69.9%, a normalised viability (HDQ-P1 [7]; 1000 nM) of 83.2% and a normalised viability (CAL-51 [8]; 1000 nM) of 93.5%. It also gave a normalised viability (CAL-148 [9]; 10 nM) of 97.2%, a normalised viability (MFM-223; 100 nM) of 88.4% and a normalised viability (DU-4475 [10]; 10 nM) of 96.9%. For the same compound, the normalised viability (HCC1143; 100 nM) was 95.9%, the normalised viability (BT-549; 100 nM) was 108% and the normalised viability (MDA-MB-468; 100 nM) was 111%. For the same compound, the normalised viability (MDA-MB-453 [11]; 10 nM) was 103%, the normalised viability (CAL-85-1 [12]; 10 nM) was 76.9% and the normalised viability (HDQ-P1 [13]; 10 nM) was 109%. It also gave a normalised viability (SK-BR-3; 100 nM) of 83.3%, a normalised viability (HCC1599 [14]; 100 nM) of 90.2% and a normalised viability (MDA-MB-436; 100 nM) of 92.3%. For the same compound, the normalised viability (Hs578T; 100 nM) was 83.1%, the normalised viability (MDA-MB-231; 100 nM) was 89% and the normalised viability (BT-474; 100 nM) was 110%. It also gave a normalised viability (CAL-51 [15]; 10 nM) of 100%, a normalised viability (CAL-120 [16]; 100 nM) of 91.1% and a normalised viability (HCC1937; 100 nM) of 94.9%. For the same compound, the normalised viability (CAL-148 [17]; 3000 nM) was 89.3%, the normalised viability (DU-4475 [18]; 3000 nM) was 96.6% and the normalised viability (MDA-MB-453 [19]; 3000 nM) was 91.7%. For the same compound, the normalised viability (CAL-85-1 [20]; 3000 nM) was 77.6%, the normalised viability (HDQ-P1 [21]; 3000 nM) was 83.9% and the normalised viability (CAL-51 [22]; 3000 nM) was 99.5%.
